Measured values: patent publication US20200009068A1, “NANOPARTICLE FORMULATIONS FOR ENHANCED DRUG DELIVERY TO THE BLADDER” (The Johns Hopkins University, priority 2017, published 2020)

Columns and labels:
[1] = 50 patients, intravesical CDDP for more than 4 months; cited from earlier work
[2] = CDDP levels in mouse bladder after intravesical administration; type: in vivo; details: mice
Description: Female CF-1 mice (age 8 weeks) were purchased from Harlan (Indianapolis, Ind.) and acclimated in the animal facility for 4 weeks. Mice were randomly divided into different groups (n≥5). Mice were anesthetized with an isoflurane vaporizer and nose cone system and catheterized using polyethylene tubing mounted on a 30G needle. After catheterization, the bladder was emptied of urine by aspiration and/or gentle pressure on the abdomen. Then, 100 μl of CDDP solution, PAA-CDDP NPs, PEGlow-PAA-CDDP NPs or PEGhigh-PAA-CDDP NPs at 0.7 mg/ml CDDP content was instilled into the bladder by intravesical administration. Mice were maintained under anesthesia for 1 h and then allowed to wake up. To assess systemic exposure, mice were euthanized at 1, 4, and 24 h and plasma was obtained for analysis of CDDP content. To assess local toxicity of CDDP solution and CDDP NPs, mice received a total of three intravesical doses spaced one week apart. Bladder tissues were obtained 24 h after the third dose, photographed, and weighed.
200 μl of plasma or bladder were transferred to a clean borosilicate glass cell culture tube, and 1 ml of 22% nitric acid was added. All samples were heated to 90° C. to digest plasma proteins or bladder tissues and to extract platinum. […] CDDP content in the solution was analyzed by AAS. The lowest limit of quantification for CDDP was 250 ng/ml (<1% of the administered dose).

[3] = Bladder uptake and retention in rats (CDDP content by AAS); type: in vivo; details: intravesical
Description: Female Fischer 344 rats (age 7 weeks) were purchased from Harlan (Indianapolis, Ind.) and acclimated in the animal facility for 1 week. Before starting the experiment, rats were randomly divided into different groups (n≥5). Rats were anesthetized with an isoflurane vaporizer and nose cone system and catheterized using a 20G angiocatheter sheath. After catheterization, the bladder was voided using aspiration and/or gentle pressure on the abdomen. Then, 300 μl of CDDP solution, PAA-CDDP NPs, PEGlow-PAA-CDDP NPs, or PEGhigh-PAA-CDDP NPs (CDDP content 0.7 mg/ml) was instilled by intravesical administration. Rats were maintained under anesthesia for 1 h and then allowed to wake up. Plasma and bladder tissues were obtained at 1 and 4 h for analysis of CDDP content. Bladder tissues were dipped in PBS and gently squeezed with forceps to remove any residual fluid.
200 μl of plasma or bladder were transferred to a clean borosilicate glass cell culture tube, and 1 ml of 22% nitric acid was added. All samples were heated to 90° C. to digest plasma proteins or bladder tissues and to extract platinum. The solution was heated until a dry yellow film was obtained. Then, 1 ml of 2.2% nitric acid added to dissolve the dried residue containing platinum. CDDP content in the solution was analyzed by AAS. The lowest limit of quantification for CDDP was 250 ng/ml (<1% of the administered dose).

[4] = systemic CDDP therapy; cited from earlier work
[5] = system: N-methyl-N-nitrosourea (MNU) induced rat bladder carcinogenesis model; assay: In vivo efficacy, tumor staging by histopathology; details: weekly intravesical dosing weeks 8-14, 0.7 mg/ml in 300 μl, sacrifice week 15
Source text: The N-methyl-N-nitrosourea (MNU) rat model of bladder cancer was chosen because it recapitulates human non-muscle invasive bladder cancer, with carcinoma in situ (CIS), non-invasive papillary carcinoma (Ta), and high grade invasive papillary carcinoma (T1) histologies, and progresses from dysplasia to NMIBC to MIBC (Steinberg G D, et al., Cancer Res, 50(20):6668-74 (1990)). This animal model progresses from dysplasia to NMIBC between about week 8 and about week […], making it a desirable time to initiate treatment and a good recapitulation of a chemopreventative treatment model. Additionally, the MNU model represents an outbred strain of NMIBC, as opposed to an inbred strain utilizing immortal clones of genetically identical tumor strains. […] Since no reliable xenograft model was believed to be present of NMIBC that progresses to MIBC in a temporal time-dependent fashion similar to human urothelial cancer, a carcinogen model was chosen to recapitulate the heterogeneity of human disease, study the antineoplastic and immunologic effects of treatment, and reflect the typical progression of non-muscle to muscle invasive cancer. In this model, the presence of NMIBC progresses from about week 8 to about week 15, at which point all rats have NMIBC.
Fischer 344 female rats (age 7 weeks) were anesthetized with an isoflurane vaporizer and nose cone system. […]

RT4 cells = assay: In vitro cytotoxicity assay (CellTiter-Glo cell viability); type: cell-based, human; details: 72 hr, triplicate
Description: In vitro cytotoxicity of CDDP, oxaliplatin, PAA-CDDP NPs, PEGlow-PAA-CDDP NPs and PEGhigh-PAA-CDDP NPs was evaluated using a superficial bladder cancer cell line (RT4) in triplicate. RT4 cells were purchased from the American Type Culture Collection (ATCC, Manassas, Va.) and cultured in McCoy's 5A (Thermo Fisher Scientific, Waltham, Mass.) at 37° C. under 5% CO2. Cells were seeded in 96-well tissue-treated culture plates at a density of 5×10^3 cells in 100 μl of complete medium and cultured overnight. Then, the supernatant was removed, and a known concentration of CDDP, oxaliplatin, or CDDP NPs (100 μl) was added into the wells. After 72 hr, cell viability was measured using CellTiter-Glo Luminescent Cell Viability Assay Kit (Promega, Madison, Wis.) according to manufacturer's protocol. Acquired data was analyzed to depict sigmoidal dose-response curve with Graph Pad Prism 5 (Graph Pad Software Inc., San Diego, Calif.) using the equation log(inhibitor) vs. response-variable slope.

[6] = system: N-methyl-N-nitrosourea (MNU) induced rat bladder carcinogenesis model; assay: Immunohistochemical staining of bladder sections; type: in vivo; details: CDDP study, week 15
Description: Fischer 344 female rats (age 7 weeks) were anesthetized with an isoflurane vaporizer and nose cone system. After complete anesthesia and preparation of the surgical area, a 20G angiocatheter (BD) was placed into the rat's urethra and the bladder was emptied of urine. MNU (1.5 mg/kg MNU dissolved in 0.30 ml of 0.9% saline, pH 6.0) was then instilled into the bladder under 45 min of continued sedation to prevent spontaneous micturition and allow absorption. In order to explore the potential for treatment to prevent recurrence, treatment was initiated from weeks 8-14. Treatment groups (n=5 per group) included CDDP and PAA-CDDP NPs dosed weekly. All formulations were delivered at a concentration of 0.7 mg/ml in 300 μl. Rats were sacrificed at week 15 for histopathologic analysis of bladder tissue. Bladders were formalin fixed, paraffin embedded, sectioned, and stained with hematoxylin-eosin for classification according to the World Health Organization/International Society of Urological Pathology consensus. Tumor staging was performed in a blinded fashion by a board certified genitourinary pathologist.
For immunohistochemical staining, high-temperature antigen retrieval (18-23 psi/126° C.) was performed by immersing the slides in Trilogy (Cell Marque, Hot Springs, Ark.). Endogenous peroxidase activity was blocked for 5 min in using Dual Endogenous Enzyme Block (Dako S2003). Primary Antibody used included KI 67 (Abcam;ab16667). Slides were stained with Impact DAB (Vector Labs, Burlingame, Calif., USA) for 3 min and counterstained with haematoxylin (Richard-Allen, Kalamazoo, Mich., USA). For each section, Ki67+, cells were counted in 10 random 400× fields.
In a MNU-induced rat bladder carcinogenesis model as described in Example 3, Fischer Rat received weekly intravesical administration of Taxotere, DTX NS, or saline, for six weeks.

SMILES | patients who stopped treatment early due to chemical cystitis [1] [%] | patients with anaphylactic reaction due to systemic drug absorption resulting in hypotensive shock [1] [%] | CDDP levels in mouse bladder at 1 h ([2]; 1 h under anesthesia) | CDDP levels in mouse bladder at 4 h ([2]; 4 h (3 h ambulatory time)) | CDDP levels in rat bladder at 4 h [3] | cases with hypersensitivity reactions [4] | rats with T1 high grade tumors in the bladder [5] [%] | RT4 cells-IC50 (RT4 cells) | Ki67+ staining compared to untreated controls [6] | number of CD3+ cells compared to untreated controls [6] | number of CD8+ cells compared to untreated controls [6] | number of Foxp3+ cells compared to untreated controls [6]
N.N.[Cl][Pt][Cl] [Cisplatin, cis-diamminedichloridoplatinum (II)] | 6 | 14 | similar | below the limit of quantitation | below the level of detection | 5-20% | 20 | 1.39 ± 0.03 μg/ml of Pt | decreased Ki67+ staining, though statistically indistinguishable from the untreated control group | without differences | significantly lower numbers | without differences
N.N.O=C([O-])C1(C(=O)[O-])CCC1.[Pt+2] [Carboplatin] |  |  |  |  |  |  |  | 17.18 ± 0.056 μg/ml of Pt |  |  |  | 
